Test results as given in US6362369B1, “Phthalic acid diamide derivatives fluorine-containing aniline compounds as starting material, agricultural and horticultural insecticides, and a method for application of the insecticides” (Nihon Nohyaku Co., Ltd., priority 1997, dated 2002).

Columns and labels:
Format in all cases: in vivo
[1] = test system: diamondback moth (Plutella xylostella); experiment: Insecticidal effect on diamondback moth (Test Example 1); settings: for Insecticidal effect, Test Example 1 / Insecticidal effect (Test Example 1), judged from mortality: diamondback moth; for Insecticidal effect (Test Example 1), judged from mortality: judged by the criterion of Test Example 1; for Insecticidal effect on diamondback moth (Test Example 1), judged grade: mortality judged according to the criterion shown in Test Example 1
In short: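 Triplicate groups of 10 insects were scored: six days after immersion of oviposited Chinese cabbage seedlings and holding at 25 °C post air-drying, hatched larvae were counted. Mortality derived from these counts and insecticidal effect judged by a set criterion.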

[2] = test system: rice leafroller (Cnaphalocrocis medinalis); experiment: Insecticidal effect on rice leafroller (Test Example 3); settings: 500 ppm, 25° C., humidity 70%; for Insecticidal effect, Test Example 3: rice lamina immersed; for Insecticidal effect, Test Example 3 / Insecticidal effect on rice leafroller (Test Example 3), judged grade: four days after inoculation; for Insecticidal effect (Test Example 3), judged from mortality / Insecticidal effect on rice leafroller (Test Example 3), judged grade: rice lamina dip; for Insecticidal effect (Test Example 3), judged from mortality: 4 days after inoculation; for Insecticidal effect on rice leafroller (Test Example 3), judged grade: third-instar larvae
In short: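 Insecticidal effect is judged by a predefined criterion from dead/alive counts four days after infesting air-dried lamina with third-instar larvae, kept on moistened filter paper at 25° C, 70% humidity.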

[3] = test system: common cutworm (Spodoptera Litura); experiment: Insecticidal effect on common cutworm (Test Example 2); settings: 500 ppm, 25° C.; for Insecticidal effect, Test Example 2: cabbage leaf immersed; for Insecticidal effect, Test Example 2 / Insecticidal effect on common cutworm (Test Example 2), judged grade: eight days after inoculation; for Insecticidal effect (Test Example 2), judged from mortality / Insecticidal effect on common cutworm (Test Example 2), judged grade: cabbage leaf dip; for Insecticidal effect (Test Example 2), judged from mortality: 8 days after inoculation; for Insecticidal effect on common cutworm (Test Example 2), judged grade: second-instar larvae
In short: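 After the treated material air-dries, it goes into a dish, second-instar larvae are added, and the dish is closed. Incubation runs at 25° C. On day eight, dead and living larvae are scored, and the calculated mortality is rated on an effect scale.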

[4] = mortality judged by criterion of Test Example 1
[5] = rice leafroller third-instar larvae
[6] = common cutworm second-instar larvae
[7] = judged by the mortality criterion of Test Example 1
[8] = third-instar larvae of rice leafroller
[9] = second-instar larvae of common cutworm

CC(C)(C)NC(=O)c1c(I)cccc1C(=O)Nc1ccc2c(c1)OC(F)(F)C(F)(F)O2 [compound 1067]
Insecticidal effect, Test Example 1 [1, 4]: A (100)
Insecticidal effect, Test Example 3 [2, 5]: A (100)
Insecticidal effect, Test Example 2 [3, 6]: A (100)

Cc1cc(OCC(F)(F)C(F)F)ccc1NC(=O)c1cccc(I)c1C(=O)NC(C)C [compound 388]
Insecticidal effect, Test Example 1 [1, 7]: A (100)
Insecticidal effect, Test Example 3 [2, 8]: B (99-90)
Insecticidal effect, Test Example 2 [3, 9]: A (100)

Cc1cc(OC(F)(F)Br)ccc1NC(=O)c1ccccc1C(=O)NC(C)(C)C [compound 1049]
Insecticidal effect, Test Example 1 [1, 4]: A (100)
Insecticidal effect, Test Example 3 [2, 5]: A (100)
Insecticidal effect, Test Example 2 [3, 6]: A (100)

CC(C)NC(=O)c1c(I)cccc1C(=O)Nc1ccc2oc(-c3ccc(C(F)(F)F)cc3)nc2c1 [compound 1173]
Insecticidal effect, Test Example 1 [1, 4]: A (100)
Insecticidal effect, Test Example 3 [2, 5]: A (100)
Insecticidal effect, Test Example 2 [3, 6]: A (100)

Cc1cc(OC(F)F)ccc1NC(=O)c1ccc(Br)c(Br)c1C(=O)NC(C)C [compound 338]
Insecticidal effect, Test Example 1 [1, 7]: A (100)
Insecticidal effect, Test Example 3 [2, 8]: A (100)
Insecticidal effect, Test Example 2 [3, 9]: B (99-90)

CC(C)NC(=O)c1c(Cl)cccc1C(=O)Nc1ccc(C(O)(C(F)(F)F)C(F)(F)F)cc1 [compound 980]
Insecticidal effect, Test Example 1 [1, 4]: A (100)
Insecticidal effect, Test Example 3 [2, 5]: A (100)
Insecticidal effect, Test Example 2 [3, 6]: A (100)

CC(C)NC(=O)c1c(I)cccc1C(=O)Nc1ccc(C(F)(F)C(F)(F)F)cc1Cl [compound 1386]
Insecticidal effect, Test Example 1 [1, 4]: A (100)
Insecticidal effect, Test Example 3 [2, 5]: A (100)
Insecticidal effect, Test Example 2 [3, 6]: A (100)

Cc1cc(OC(F)F)ccc1NC(=O)c1cccc(Cl)c1C(=O)N[C@H](C)c1ccccc1 [compound 1458]
Insecticidal effect (Test Example 1), judged from mortality [1]: A (100)
Insecticidal effect (Test Example 3), judged from mortality [2, 8]: A (100)
Insecticidal effect (Test Example 2), judged from mortality [3, 9]: A (100)

Cc1cc(C(F)(C(F)(F)F)C(F)(F)F)ccc1NC(=O)c1cccc(I)c1C(=O)NC(C)c1ccco1 (stereo not drawn) [compound 1799]
Insecticidal effect (Test Example 1), judged from mortality [1]: A (100)
Insecticidal effect (Test Example 3), judged from mortality [2, 8]: A (100)
Insecticidal effect (Test Example 2), judged from mortality [3, 9]: A (100)

Cc1ccc(Cl)cc1NC(=O)c1cccc(Cl)c1C(=O)NC(C)C [compound 120]
Insecticidal effect, Test Example 1 [1, 7]: A (100)
Insecticidal effect, Test Example 3 [2, 8]: A (100)
Insecticidal effect, Test Example 2 [3, 9]: D (79-50)

CC(C)NC(=O)c1c(C(=O)Nc2ccc(OC(F)(F)F)cc2Br)cccc1[N+](=O)[O-] [compound 705]
Insecticidal effect on diamondback moth (Test Example 1), judged grade [1]: A (100)
Insecticidal effect on rice leafroller (Test Example 3), judged grade [2]: A (100)
Insecticidal effect on common cutworm (Test Example 2), judged grade [3]: D (79-50)

Cc1cc(SC(F)(F)C(F)(F)C(F)(F)F)ccc1NC(=O)c1cccc(I)c1C(=O)NC(C)C [compound 403]
Insecticidal effect, Test Example 1 [1, 7]: A (100)
Insecticidal effect, Test Example 3 [2, 8]: A (100)
Insecticidal effect, Test Example 2 [3, 9]: B (99-90)

CCCC(C)NC(=O)c1c(I)cccc1C(=O)Nc1ccc(C(F)(F)C(F)(F)F)cc1C (stereo not drawn) [compound 1009]
Insecticidal effect, Test Example 1 [1, 4]: A (100)
Insecticidal effect, Test Example 3 [2, 5]: A (100)
Insecticidal effect, Test Example 2 [3, 6]: A (100)

CC(C)NC(=O)c1c(I)cccc1C(=O)Nc1ccc(OC(F)F)c(F)c1 [compound 382]
Insecticidal effect, Test Example 1 [1, 7]: A (100)
Insecticidal effect, Test Example 3 [2, 8]: A (100)
Insecticidal effect, Test Example 2 [3, 9]: B (99-90)

Cc1c(F)cccc1NC(=O)c1c(F)cccc1C(=O)NC(C)C [compound 548]
Insecticidal effect on diamondback moth (Test Example 1), judged grade [1]: A (100)
Insecticidal effect on rice leafroller (Test Example 3), judged grade [2]: A (100)
Insecticidal effect on common cutworm (Test Example 2), judged grade [3]: A (100)

Cc1cc(C(F)(F)C(F)(F)F)ccc1NC(=O)c1cccc(Cl)c1C(=O)NC(C)c1ccc(Cl)cc1 (stereo not drawn) [compound 1366]
Insecticidal effect, Test Example 1 [1, 4]: A (100)
Insecticidal effect, Test Example 3 [2, 5]: A (100)
Insecticidal effect, Test Example 2 [3, 6]: A (100)

Cc1cc(C(F)(F)C(F)(F)F)ccc1NC(=O)c1cccc(Cl)c1C(=O)NC(C)(C)C#Cc1cccnc1 [compound 1590]
Insecticidal effect (Test Example 1), judged from mortality [1]: A (100)
Insecticidal effect (Test Example 3), judged from mortality [2, 8]: A (100)
Insecticidal effect (Test Example 2), judged from mortality [3, 9]: A (100)

Cc1cc(OC(F)(F)F)ccc1NC(=O)c1cccc(Cl)c1C(=O)NC(C)C [compound 139]
Insecticidal effect, Test Example 1 [1, 7]: A (100)
Insecticidal effect, Test Example 3 [2, 8]: A (100)
Insecticidal effect, Test Example 2 [3, 9]: A (100)

CCN(CC)C(=O)c1c(C(=O)Nc2ccc(OC(F)(F)F)cc2C)cccc1[N+](=O)[O-] [compound 1118]
Insecticidal effect, Test Example 1 [1, 4]: A (100)
Insecticidal effect, Test Example 3 [2, 5]: A (100)
Insecticidal effect, Test Example 2 [3, 6]: A (100)

CCN(CC)C(=O)c1c(F)cccc1C(=O)Nc1ccc(C(F)(F)C(F)(F)F)cc1C [compound 1525]
Insecticidal effect (Test Example 1), judged from mortality [1]: A (100)
Insecticidal effect (Test Example 3), judged from mortality [2, 8]: A (100)
Insecticidal effect (Test Example 2), judged from mortality [3, 9]: A (100)

Cc1cc(OC(F)F)ccc1NC(=O)c1c(I)cccc1C(=O)NC(C)C [compound 469]
Insecticidal effect on diamondback moth (Test Example 1), judged grade [1]: A (100)
Insecticidal effect on rice leafroller (Test Example 3), judged grade [2]: D (79-50)
Insecticidal effect on common cutworm (Test Example 2), judged grade [3]: A (100)

CC(C)NC(=O)c1c(I)cccc1C(=O)Nc1cc2c(cc1Cl)OC(F)(F)C(F)(F)O2 [compound 1625]
Insecticidal effect (Test Example 1), judged from mortality [1]: A (100)
Insecticidal effect (Test Example 3), judged from mortality [2, 8]: A (100)
Insecticidal effect (Test Example 2), judged from mortality [3, 9]: A (100)

CCN(CC)C(=O)c1c(Cl)cccc1C(=O)Nc1ccc(C(F)(F)C(F)(F)F)cc1F [compound 1541]
Insecticidal effect (Test Example 1), judged from mortality [1]: A (100)
Insecticidal effect (Test Example 3), judged from mortality [2, 8]: A (100)
Insecticidal effect (Test Example 2), judged from mortality [3, 9]: A (100)

Cc1cc(Br)ccc1NC(=O)c1ccccc1C(=O)NC(C)C [compound 52]
Insecticidal effect, Test Example 1 [1, 7]: A (100)
Insecticidal effect, Test Example 3 [2, 8]: A (100)
Insecticidal effect, Test Example 2 [3, 9]: A (100)

Cc1cc(C(F)(F)C(F)(F)F)ccc1NC(=O)c1cccc(I)c1C(=O)NCc1ccccc1Cl [compound 1402]
Insecticidal effect, Test Example 1 [1, 4]: A (100)
Insecticidal effect, Test Example 3 [2, 5]: A (100)
Insecticidal effect, Test Example 2 [3, 6]: A (100)
